Experimental data as given in patent US20230255990A1, “USE OF 2'-FL FOR TREATMENT OF SYMPTOMS ASSOCIATED WITH AUTISM SPECTRUM DISORDER” (Glycosyn LLC, priority 2020, published 2023).

How the values were obtained:
[1] = system: IL-10 and inflammatory cytokine expression; details: 2′-FL alone or as part of an HMO mixture, pre-clinical studies; cited from earlier work
bifidobacteria = details: alone or in combination with other HMOs; cited from earlier work
[2] = system: gastrointestinal mitochondrial function; details: murine model; pathways of electron transport chain, oxidative phosphorylation, protein targeting to the mitochondrion; cited from earlier work
mouse model for ASD = assay: Sociality (aggregons) in mouse model for ASD, pups of antibiotic-treated mothers; format: in vivo
Text: ASD is a neurobehavioral disorder in which affected individuals have persistent deficits in social communication and interaction (symptom of ASD). To address the impact of 2′-FL administration on social communication and interaction, a mouse model for ASD was designed and experiments conducted to study ASD-associated neurobehavioral disorders such as interpersonal sociality. A depiction of the system used for scoring contact behavior was adapted from known method, e.g., that described by Harshaw, C. et al. (2014). “Sex Differences in Thermogenesis Structure Behavior and Contact within Huddles of Infant Mice.” Plos One, 9(1), 1-15 and Sokoloff G, Blumberg M S. Competition and cooperation among huddling infant rats. Dev Psychobiol. 2001 September; 39(2):65-75. doi: 10.1002/dev.1030, Erratum in: Dev Psychobiol 2001 November; 39(3):229.
The question to be addressed was whether providing 2′-FL rescues the normal sociality of mouse pups whose social interaction was perturbed. Perturbation of behavior was achieved by antibiotic treatment of their mothers using a method previously developed and validated. Sociality is measured by objective measurement of “aggregons” which means the (a) huddling of dams and pups or (b) pups only in groups.
The mouse experiment involved 22 mother-pup litters including a control group (n=7 litters with 28 pups), an antibiotic treated group (7 litters with 28 pups), and a 2′-FL treated group (8 litters with 32 pups).
Mothers were treated with an antibiotic cocktail, starting from gestational day 12; delivery was on day 20. Antibiotic use was continued for mothers postpartum. Treatment of 2′-FL was given to mothers and pups through their water intake. Sociality was measured at night, as mice are nocturnal animals, using the mean number of aggregons (social groupings). Aggregons could consist of individual mice only if they were not huddled with other mice, or they could be a group defined as either one or more pups with the dam, or two or more pups without the dam. The outcome of the experiment was measured on postpartum day 7. […]

## 2′-fucosyllactose [2′-FL]
[1]
  IL-10: increase IL-10
  inflammatory cytokine expression: decrease inflammatory cytokine expression
bifidobacteria
  growth and relative abundance of bifidobacteria: increases the growth and relative abundance of bifidobacteria
[2]
  gastrointestinal mitochondrial function: increase gastrointestinal mitochondrial function
Mouse model for ASD; night 7, p<0.05, 2′-FL group follows the pattern of the controls
  pup-only aggregons, pattern by experimental group: This pattern in the aggregons by experimental group was also observed
Mouse model for ASD; night 7 postpartum, 2′-FL via water intake to mothers and pups, antibiotic-treated group 41, controls 26, lower number = more sociality
  marginal mean of aggregons including dams: 25 aggregons
Mouse model for ASD; postpartum day 7
  sociality of antibiotic-treated mice (dams and their offspring): normal sociality was rescued
